Values after ≈ are worked out from the molar mass of the structure shown. Where only a bound is given, the exact number is not on record here.

Data set [1] has as its system Rat Hepatocytes (rHep). Briefly: Metabolic stability in rat hepatocytes (rHep). The format is in vitro ADME. The method, then:
Metabolic stability in rat hepatocytes was measured as described in J Comput Aided Mol Des 2015, 29, 795.

The target in data set [2] is human Fibroblast activation protein alpha (hFAP) (Homo sapiens (Human), UniProt Q12884). Nature of the data set: hFAP inhibition assay (tight binders). The format is biochemical. As to conditions: tight-binder format, Ala-Pro-AMC 20 μM, 2.5 h incubation; n = 1 or geometric mean (n = 5-10). The method, then: Data were analyzed in Genedata Screener®.
In data set [3] the target is Prolyl Oligopeptidase (hPREP) (Homo sapiens (Human), UniProt P48147). Nature of the data set: hPREP inhibition assay. The class given is biochemical. As to conditions: hPREP 0.6 nM, Z-Gly-Pro-amino-methylcoumarin 50 μM; read-out: PREP IC50. An outline of the steps:
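Recombinant human PREP at 0.6 nM final, with Z-Gly-Pro-AMC substrate at 50 μM final. Buffer: 25 mM Tris HCl pH 7.5, 250 mM NaCl, 0.01% Triton X-100, 5 mM glutathione. Incubated 20 min at rt in the dark; fluorogenic AMC release read.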

The nature of data set [4]: Caco-2 bidirectional (ABBA) permeability. The format is in vitro ADME. The note with it: human; for Papp A→B: A to B, read-out: Caco2 Bidirectional (ABBA) A to B Papp; for Papp B→A: B to A, read-out: Caco2 Bidirectional (ABBA) B to A Papp; for efflux ratio: read-out: Caco2 Bidirectional (ABBA) Efflux Ratio. Here is the method:
Caco-2 cell permeability was measured as described in Mol/Pharm 2017, 14, 1601.

The nature of data set [5]: Kinetic solubility. The class given is physicochemical. The note with it: kinetic from dmso stock. Here is the method: Kinetic solubility was measured as described in Comput Aided Mol Des 2015, 29, 795.
Data set [6] in a line: Metabolic stability in human liver microsomes (HLM). The format is in vitro ADME. The method, then: Metabolic stability in HLM was measured as described in J Comput Aided Mol Des 2015, 29, 795.
The target in data set [7] is hFAP (Homo sapiens (Human), UniProt Q12884).
Data set [8] addresses FAP Human Plasma (Homo sapiens (Human), UniProt Q12884). Nature of the data set: FAP plasma inhibition assay, human plasma. The format is biochemical. The note with it: human plasma dilution 1:40, Ala-Pro-AMC 75 μM; n = 1. Here is the method: This assay was adapted from the method described in Example 53 for detection of FAP target engagement enzyme activity in plasma. Plasma (anticoagulant K2EDTA) was used as the enzyme source: Human plasma (Pooled from AZ Biobank) and Mouse plasma (AZ AST Biobank). 384-Well black fluotrack PS plates (Greiner 781076) were used. 20 μL diluted plasma (Human plasma dilution 1:40, Mouse plasma dilution 1:67) in buffer (PBS, 0.1% BSA) was added to 0.6 μL compounds (in DMSO). Compounds were tested using 10 CR, 3-fold dilution series from 500 nM FAC. Two replicates for each assay point were run on the same plate. A fluorescence blank read was taken before substrate addition. Substrate, Ala-Pro-AMC (ARI-3144) stock solution (20 mM in DMSO) was diluted in buffer (PBS, 0.1% BSA) to 150 μM concentration and 20 μL added giving 75 μM FAC. Plates were incubated for 40 min at rt in the dark. The plates were read on a Beckman Paradigm® reader with excitation 360 nm and emission 465 nm. Data were analyzed in Excel (IDBS XLfit Add-In) using a one site dose response model (4-parameter logistic fit). […] Raw data signals were normalized using 1.5% DMSO in diluted plasma as 0% control and 1.5% DMSO in buffer (no plasma) as 100% inhibitor control.

Sequence of Prolyl Oligopeptidase (hPREP) (P48147 whole entry): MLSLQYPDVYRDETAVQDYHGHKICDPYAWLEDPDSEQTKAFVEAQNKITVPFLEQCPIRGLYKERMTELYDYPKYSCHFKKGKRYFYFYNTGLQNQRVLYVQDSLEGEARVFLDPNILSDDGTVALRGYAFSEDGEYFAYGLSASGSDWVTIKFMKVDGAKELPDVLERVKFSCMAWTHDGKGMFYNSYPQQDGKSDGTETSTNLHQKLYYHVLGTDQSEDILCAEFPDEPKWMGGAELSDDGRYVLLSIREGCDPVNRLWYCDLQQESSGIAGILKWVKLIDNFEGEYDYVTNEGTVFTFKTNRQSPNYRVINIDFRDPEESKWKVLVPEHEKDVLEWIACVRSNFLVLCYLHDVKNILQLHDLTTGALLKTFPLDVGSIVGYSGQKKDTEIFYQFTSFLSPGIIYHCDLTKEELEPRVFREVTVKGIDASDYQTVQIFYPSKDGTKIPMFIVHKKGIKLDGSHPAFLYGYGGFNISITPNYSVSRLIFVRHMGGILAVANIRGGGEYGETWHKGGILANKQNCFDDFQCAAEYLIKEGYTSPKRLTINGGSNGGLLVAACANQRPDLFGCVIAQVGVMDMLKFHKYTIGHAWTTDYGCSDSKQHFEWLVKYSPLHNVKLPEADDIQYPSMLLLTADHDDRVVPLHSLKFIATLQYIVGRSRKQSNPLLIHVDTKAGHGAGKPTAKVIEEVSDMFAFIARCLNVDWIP
Sequence of FAP Human Plasma (Q12884 24-760 limits assumed): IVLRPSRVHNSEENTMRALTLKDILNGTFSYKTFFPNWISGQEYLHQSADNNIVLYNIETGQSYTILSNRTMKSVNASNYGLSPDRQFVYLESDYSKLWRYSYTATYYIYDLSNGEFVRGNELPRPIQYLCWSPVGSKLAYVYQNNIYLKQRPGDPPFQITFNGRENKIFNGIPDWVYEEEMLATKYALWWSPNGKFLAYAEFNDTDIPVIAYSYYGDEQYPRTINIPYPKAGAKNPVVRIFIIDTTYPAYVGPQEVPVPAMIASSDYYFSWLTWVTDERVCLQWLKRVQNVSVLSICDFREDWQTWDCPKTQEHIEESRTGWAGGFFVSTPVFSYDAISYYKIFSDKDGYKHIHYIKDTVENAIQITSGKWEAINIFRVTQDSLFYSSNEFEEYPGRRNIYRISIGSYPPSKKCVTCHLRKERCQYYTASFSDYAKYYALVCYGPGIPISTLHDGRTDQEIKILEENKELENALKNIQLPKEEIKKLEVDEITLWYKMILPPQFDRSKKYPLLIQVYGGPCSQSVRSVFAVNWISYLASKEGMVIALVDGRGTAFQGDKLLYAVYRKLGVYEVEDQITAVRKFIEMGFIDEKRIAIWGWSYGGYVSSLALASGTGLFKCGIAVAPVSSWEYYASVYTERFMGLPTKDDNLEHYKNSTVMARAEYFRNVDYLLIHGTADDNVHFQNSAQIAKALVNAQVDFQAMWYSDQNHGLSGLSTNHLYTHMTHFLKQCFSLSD
Sequence of human Fibroblast activation protein alpha (hFAP) (Q12884 38-760): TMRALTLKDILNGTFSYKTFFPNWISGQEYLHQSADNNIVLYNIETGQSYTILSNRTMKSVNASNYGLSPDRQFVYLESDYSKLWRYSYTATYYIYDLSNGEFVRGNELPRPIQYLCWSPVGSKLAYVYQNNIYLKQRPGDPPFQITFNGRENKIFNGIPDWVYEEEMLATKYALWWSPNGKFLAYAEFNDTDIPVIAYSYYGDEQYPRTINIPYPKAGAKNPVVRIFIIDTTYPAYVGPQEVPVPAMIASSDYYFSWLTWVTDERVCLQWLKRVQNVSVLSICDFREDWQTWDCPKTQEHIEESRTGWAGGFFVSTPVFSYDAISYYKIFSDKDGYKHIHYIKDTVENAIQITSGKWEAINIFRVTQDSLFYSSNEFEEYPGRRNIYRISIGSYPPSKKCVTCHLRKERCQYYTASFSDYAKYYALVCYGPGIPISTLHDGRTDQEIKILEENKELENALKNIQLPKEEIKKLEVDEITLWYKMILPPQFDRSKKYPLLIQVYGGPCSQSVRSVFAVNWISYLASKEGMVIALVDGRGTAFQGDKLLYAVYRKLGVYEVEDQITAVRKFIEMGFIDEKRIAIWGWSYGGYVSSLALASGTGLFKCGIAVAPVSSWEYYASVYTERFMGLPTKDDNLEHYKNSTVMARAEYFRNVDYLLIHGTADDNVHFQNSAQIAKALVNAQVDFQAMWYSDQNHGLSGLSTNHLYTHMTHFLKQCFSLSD
Sequence of hFAP (Q12884 38-760): as above

With `Cc1ccc2c(C(=O)NCC(=O)N3[C@H](C#N)C[C@@H]4C[C@@H]43)ccnc2c1` [Example 20, N-(2-((1S,3S,5S)-3-Cyano-2-azabicyclo[3.1.0]hexan-2-yl)-2-oxoethyl)-7-methylquinoline-4-carboxamide], in data set [1], the “rHeps CLint” value is reported as below 2 μL/min/1E6. The 50% inhibitory concentration (IC50) is 0.48 nM in data set [2], 31000 nM in data set [3], below 1.6 nM in data set [7] and 1.6 nM in data set [8]. In addition, the Papp A→B in data set [4] is 24 ×10⁻⁶ cm/s. For the same compound, the Papp B→A in data set [4] stood at 19 ×10⁻⁶ cm/s. Besides, the efflux ratio in data set [4] was determined as 0.8. In data set [5], the solubility was above 1000 µM. Besides, the microsomal CLint in data set [6] was below 3.2 µL/min/mg.

Take `N#C[C@@H]1C[C@@H]2C[C@@H]2N1C(=O)CNC(=O)c1ccnc2cc(C3(C#N)CC3)ccc12` [Example 40, N-(2-((1S,3S,5S)-3-Cyano-2-azabicyclo[3.1.0]hexan-2-yl)-2-oxoethyl)-7-(1-cyanocyclopropyl)quinoline-4-carboxamide]: the “rHeps CLint” value in data set [1] is 2.6 μL/min/1E6. Further, the IC50 in data set [2] is 0.15 nM; in data set [3], above 50000 nM; in data set [7], 0.49 nM; in data set [8], 4.1 nM. Further, the Papp A→B in data set [4] came to 2.8 ×10⁻⁶ cm/s. The Papp B→A in data set [4] amounted to 28 ×10⁻⁶ cm/s. The efflux ratio in data set [4] was 10. The concentration in solution in data set [5] (solubility) was 570 µM (≈ 220 µg/mL). Also, the microsomal CLint in data set [6] was below 3 µL/min/mg.

The values above are taken from patent publication US20230406840A1, “N-(2-(3-CYANO-2-AZABICYCLO[3.1.0]HEXAN-2-YL)-2-OXOETHYL)QUINOLINE-4-CARBOXAMIDES” (AstraZeneca AB, priority 2022, published 2023).
